Assay results: ChEMBL document CHEMBL1821695, “Tetrazine-trans-cyclooctene ligation for the rapid construction of integrin αvβ₃ targeted PET tracer based on a cyclic RGD peptide” (Bioorg Med Chem Lett, 2011); call rule not given here

How the values were obtained:
[1] = molecular target: Integrin alpha-V/beta-3 (Homo sapiens) (UniProt P05106+P06756); assay: Displacement of [125]I-echistatin from alphaVbeta3 integrin expressed in human U87MG cells by competitive binding assay; format: cell-based; settings: U-87MG ATCC
[2] = Chemical stability of the compound in phosphate buffer saline in presence of 5% EtOH after 6 hrs by Radio-HPLC analysis; format: physicochemical; settings: phosphate buffered saline with 5% EtOH; read-out: Stability
[3] = system: Mus musculus; assay: Biodistribution in tumor of athymic nude mouse bearing U87MG cells at 3.7 MBq, iv after 0.5 hrs by micro PET scan method; format: ADME, organism-based, Neoplasm, U-87MG ATCC; settings: in vivo
[4] = system: Mus musculus; assay: Biodistribution in tumor of athymic nude mouse bearing U87MG cells at 3.7 MBq, iv after 1 hr by micro PET scan method; format: ADME, organism-based, Neoplasm, U-87MG ATCC; settings: in vivo
[5] = system: Mus musculus; assay: Biodistribution in tumor of athymic nude mouse bearing U87MG cells at 3.7 MBq, iv after 2 hrs by micro PET scan method; format: ADME, organism-based, Neoplasm, U-87MG ATCC; settings: in vivo
[6] = system: Mus musculus; assay: Biodistribution in tumor of athymic nude mouse bearing U87MG cells at 3.7 MBq, iv after 4 hrs by micro PET scan method; format: ADME, organism-based, Neoplasm, U-87MG ATCC; settings: in vivo
[7] = system: Mus musculus; assay: Biodistribution in abdomen of athymic nude mouse bearing U87MG cells at 3.7 MBq, iv upto 4 hrs postinjection by micro PET scan method; format: ADME, organism-based, U-87MG ATCC; settings: in vivo
[8] = system: Mus musculus; assay: Biodistribution in tumor of athymic nude mouse bearing U87MG cells after 0.5 hrs co-injecting with 10 mg/kg of c(RGDyK) by micro PET scan method; format: ADME, organism-based, Neoplasm, U-87MG ATCC; parameters: dose 10 mg/kg; settings: in vivo
[9] = system: Mus musculus; assay: Biodistribution in tumor of athymic nude mouse bearing U87MG cells after 1 hr co-injecting with 10 mg/kg of c(RGDyK) by micro PET scan method; format: ADME, organism-based, Neoplasm, U-87MG ATCC; parameters: dose 10 mg/kg; settings: in vivo
[10] = system: Mus musculus; assay: Biodistribution in tumor of athymic nude mouse bearing U87MG cells after 2 hrs co-injecting with 10 mg/kg of c(RGDyK) by micro PET scan method; format: ADME, organism-based, Neoplasm, U-87MG ATCC; parameters: dose 10 mg/kg; settings: in vivo
[11] = system: Mus musculus; assay: Biodistribution in tumor of athymic nude mouse bearing U87MG cells after 4 hrs co-injecting with 10 mg/kg of c(RGDyK) by micro PET scan method; format: ADME, organism-based, Neoplasm, U-87MG ATCC; parameters: dose 10 mg/kg; settings: in vivo

N=C(N)NCCC[C@H]1NC(=O)CNC(=O)[C@@H](CC(=O)O)NC(=O)[C@H](Cc2ccc(O)cc2)NC(=O)[C@@H](CCCCN)NC1=O
Activity [1]: Dose-dependent effect

N=C(N)NCCC[C@H]1NC(=O)CNC(=O)[C@@H](CC(=O)O)NC(=O)[C@H](Cc2ccc(O)cc2)NC(=O)[C@@H](CCCCNC(=O)CCCC(=O)Nc2ccc(C3=NN=C(c4ccccn4)[C@@H]4CCC[C@@H](OCC[18F])CC[C@@H]34)nc2)NC1=O
remaining at 6 h [2]: > 95% | Drug uptake [3]: 4.6 % ID/g | Drug uptake [4]: 4.4 % ID/g | Drug uptake [5]: 4.2 % ID/g | Drug uptake [6]: 2.7 % ID/g | Drug uptake [7]: Active | Drug uptake [8]: 1.4 % ID/g | Drug uptake [9]: 1 % ID/g | Drug uptake [10]: 0.6 % ID/g | Drug uptake [11]: 0.4 % ID/g

N=C(N)NCCC[C@H]1NC(=O)CNC(=O)[C@@H](CC(=O)O)NC(=O)[C@H](Cc2ccc(O)cc2)NC(=O)[C@@H](CCCCNC(=O)CCCC(=O)Nc2ccc(C3=NN=C(c4ccccn4)[C@@H]4CCC[C@@H](OCCF)CC[C@@H]34)nc2)NC1=O
Activity [1]: Dose-dependent effect
